Measurements: US20230321187A1, “OCTOPUS-DERIVED PEPTIDE OCTOPROMYCIN HAVING ANTIBACTERIAL AND ANTI-BIOFILM ACTIVITY AGAINST ACINETOBACTER BAUMANNII” (priority 2020, published 2023)

Assays:
[1] = test system: A. baumannii; experiment: Time-kill kinetics (OD 595 nm); format: cell-based, Acinetobacter baumannii; settings: 10 μg/mL
Protocol: The MIC and MBC levels of octopromycin in A. baumannii were determined using media dilution tests and subcultures, respectively, according to the guidelines of the Clinical and Laboratory Standards Institute (CLSI, 2008 M27-A3). Several concentrations of octopromycin (0, 5, 10, 25, 50, 100, and 200 μg/mL) were tested as standard antibiotics (positive control) together with chloramphenicol (10 μg/mL, Sigma-Aldrich, USA) acting on A. baumannii growth and the MBC of chloramphenicol was confirmed according to the same procedure. The MIC was determined as the minimum concentration required to inhibit visual growth of A. baumannii. […] For analysis of time-kill kinetics, A. baumannii was cultured with octopromycin at various concentrations (0, 25, 50, 100, and 200 μg/mL) in the TSA medium at 25° C., and at different time intervals (0, 3, 6, 9, 12, 18, and 21 h), the absorbance was measured at 595 nm using a microplate reader (Bio-Rad, Saint Louis, USA) to confirm an inhibitory effect after culturing.

[2] = test system: A. baumannii; experiment: Propidium iodide (PI) uptake / FDA staining membrane permeability assay (CLSM); format: cell-based, Acinetobacter baumannii; settings: 10 μg/mL, positive control
Protocol: Propidium iodide (PI) uptake assay was performed to evaluate an effect of octopromycin on association with the membrane permeability and apoptosis of A. baumannii. The PI was a red fluorescent nuclear and chromosome counter dye that indicated changes in cell membrane permeability, and was used to detect the presence of dead cells and simultaneously observe live cells by observing green fluorescence (FDA). A. baumannii treated with octopromycin at MIC; 50 μg/mL and MBC; 200 μg/mL levels and control cell suspensions were centrifuged (5000 rpm for 2 minutes), washed with PBS and the pellets were suspended in PBS. Subsequently, the cells were cultured with 20 μg/mL of PI (Sigma Aldrich, USA) and 8 μg/mL of FDA (Sigma Aldrich, USA) at 25° C. for 30 minutes in the dark, and finally, the remaining dye was washed with PBS. Finally, a 5 μL drop of each suspension was placed on a cover slip and fluorescence images were observed using a CLSM integrated with a scan head on an Axiovert 200M inverted microscope (Carl Zeiss, Germany).

[3] = test system: A. baumannii biofilm; experiment: microbe, parasite or virus in culture; format: cell-based; settings: Acinetobacter baumannii; 10 μg/mL, positive control; read-out: biofilm formation inhibition
Protocol: In order to investigate an effect of octopromycin on the biofilm of A. baumannii, analysis for biofilm formation inhibition and eradication was performed.
To examine the inhibitory effect of an octopromycin peptide on biofilm formation, A. baumannii was cultured in TSB. The bacteria were diluted to 5×10^5 CFU/mL in a TSB medium, then 97.5 mL and 90 mL of bacterial suspensions were mixed with 2.5 mL and 10 mL of peptides, respectively, to reach 50 μg/mL (MIC) and 200 μg/mL (MBC), and cultured on a 96-well plate for 24 hours. Then, the supernatant was carefully removed, and the formed biofilm was fixed with 100% methanol for 10 minutes. After methanol was removed, the biofilm was stained with 0.1% crystal violet for 30 minutes. Subsequently, the plate was washed 3 times with distilled water. Finally, the biofilm was completely dissolved in 95% ethanol and absorbance was measured at 495 nm using a microplate reader (Bio-Rad, USA).

[4] = test system: mouse red blood cells; format: cell-based
Protocol: Systemic application of octopromycin as an antibiotic requires low toxicity to red blood cells. Accordingly, an in vitro hemolysis assay was performed using mouse red blood cells […].
The hemolytic activity of the peptide was evaluated using mouse red blood cells (RBC). The RBCs were washed 3 times with phosphate buffered saline (PBS) until the supernatant was clear. Different concentrations of octopromycin (0, 25, 50, 100, 200, 300 μg/mL) were added to 1.5 ml Eppendorf tubes. The RBCs were added at a final concentration of 8% (v/v) in a total volume of 500 μL. The RBCs were incubated for 1 hour, and then centrifuged for 10 minutes and the absorbance of the supernatant was measured at 414 nm.
Percent hemolysis was calculated using Equation:
Hemolysis (%)=(A414 of Peptide−A414 of PBS)/(A414 of Triton−A414 of PBS)×100

Q: What does the source list for `O=C(N[C@H](CO)[C@H](O)c1ccc([N+](=O)[O-])cc1)C(Cl)Cl` [chloramphenicol, reference compound]?
A: growth inhibition (time-kill kinetics) [1]: growth inhibition was similar to that of 50 μg/mL of octopromycin; membrane permeability (PI/FDA staining) [2]: high membrane permeability; inhibition at 10 µg/mL [3]: 85.9%

Q: With Triton X-100 as the compound, how does the hemolysis [4] read?
A: 100%
